Data on three molecules can be found in article PMC5794219 (SLAS discovery : advancing life sciences R & D, 2017).

One series deals with E. coli HisRS. The note with it: cited from earlier work.
In another series the target is T1, P. aeruginosa HisRS (Pseudomonas aeruginosa, UniProt Q9HXJ5).
T1 sequence (Q9HXJ5 1-429): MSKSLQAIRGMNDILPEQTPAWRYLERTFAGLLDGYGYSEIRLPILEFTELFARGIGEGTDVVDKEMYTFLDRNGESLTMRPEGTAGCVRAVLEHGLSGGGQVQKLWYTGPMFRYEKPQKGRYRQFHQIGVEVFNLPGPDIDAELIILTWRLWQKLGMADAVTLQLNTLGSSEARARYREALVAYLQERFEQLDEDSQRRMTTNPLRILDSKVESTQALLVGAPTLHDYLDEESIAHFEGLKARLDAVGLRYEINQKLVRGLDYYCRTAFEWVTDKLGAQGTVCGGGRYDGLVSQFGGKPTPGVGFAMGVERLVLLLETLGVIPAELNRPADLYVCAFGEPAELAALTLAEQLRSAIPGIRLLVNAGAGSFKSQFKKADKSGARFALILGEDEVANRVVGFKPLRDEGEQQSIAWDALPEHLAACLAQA
In words: ATP:PPi exchange reactions. It is filed as biochemical. The note with it: substrate varied, other substrate constant at 2 mM.

Substrate in series [1]: N[C@@H](Cc1c[nH]cn1)C(=O)O
Nature of the series: ATP:PPi exchange reactions. The series is classed as biochemical, Pseudomonas aeruginosa. As to conditions: other: substrate varied, other substrate constant at 2 mM; pH 7.5; 37.0 °C.

Substrate in series [2]: Nc1ncnc2c1ncn2[C@@H]1O[C@H](COP(=O)(O)OP(=O)(O)OP(=O)(O)O)[C@@H](O)[C@H]1O
Nature of the series: ATP:[32P]PPi exchange at pH 7.5, 37 °C, 0.05 µM HisRS, ATP varied. It is filed as biochemical.

In the case of `N[C@@H](Cc1c[nH]cn1)C(=O)O` [histidine], the turnover with E. coli HisRS (E. coli HisRS, interaction with His, different research groups ref 24, 25) was 7 to 142 s⁻¹.

In the case of `Nc1ncnc2c1ncn2[C@@H]1O[C@H](COP(=O)(O)OP(=O)(O)OP(=O)(O)O)[C@@H](O)[C@H]1O` [ATP], on P. aeruginosa HisRS, the Km (usually the concentration of substrate that gives half-maximal velocity) came out at 298 µM and the “kcat (turnover number)” value stood at 16.8 s⁻¹. Also, the Km with E. coli HisRS (E. coli HisRS ref 12) is 890 µM. In addition, the kcat (in general, the maximal rate divided by the concentration of active sites) in the series on E. coli HisRS (E. coli HisRS, interaction with ATP ref 24) is 34 s⁻¹.

B1: P. aeruginosa HisRS (Pseudomonas aeruginosa PAO1) (protein)
chain: T1 sequence (Q9HXJ5 1-429)
On to B1, for which, in series [1], the Km is recorded as 37.6 µM and the kcat was 8.32 s⁻¹. Moreover, in series [2], the Km was determined as 298.5 µM.
